{
  "source": "paper PMC10937676",
  "about": "“Targeting the NTSR2/TrkB oncogenic pathway in chronic lymphocytic leukemia” (Scientific Reports, 2024)",
  "key": {"[1]": {"system": "MEC-1 cell line", "assay": "Cytotoxicity on the MEC-1 cell line (Incucyte, Cytotox Dye)", "type": "cell-based", "details": "0 to 100 µM peptide, fluorescence monitored for 24 h, read-out: IC50, cell death", "experimental": "The cytotoxicity of the peptides was initially assessed on the MEC-1 cell line to determine their IC50.\nFigure 3 Cytotoxicity of the peptide in vitro and ex vivo. (A) Determination of the cytotoxicity of Pep and TAT-Pep peptides on the MEC-1 cell line. Increased concentrations (0 to 100 µM) of Pep and TAT-Pep were incubated with the MEC-1 cell line, and the number of dead cells was measured using the Incucyte live-cell imaging device with Cytotox Dye (green). Fluorescence was monitored for 24 h. (B) Measurement of the cytotoxicity of the TAT-Pep peptide on CLL-B cells from patients. Increased concentrations (0 to 30 µM) of TAT-Pep were incubated with CLL-B cells, and the number of dead cells was measured using the Incucyte live-cell imaging device with Cytotox Dye (green). Fluorescence was monitored for 48 h. […] In all analyses, the ‘Green Object Count/Phase Object Count’ ratio was determined using the Incucyte analysis software to obtain the percentage of dead cells. The area under the curve for each condition was then calculated, and they were compared using a t-test. […]\nCell viability and survival were monitored using the IncucyteS3 system (Sartorius), a live-cell imaging device enabling the tracking of fluorescence over set periods of time[41],[42]. […] The area under the curve for each condition was then calculated, and they were compared using a t-test. […]"}, "[2]": {"system": "AKT", "assay": "Immunoblot, relative phosphorylation level of AKT in CLL-B cells", "type": "cell-based, human", "details": "CLL-B cells from 10 patients, overnight, 10 µM", "experimental": "(§1) Figure 5 The peptide inhibits kinase phosphorylation. CLL-B cells from 10 patients were incubated overnight, with or without 10 µM of TAT-Pep. Whole cell lysates were then prepared, and 10 µg of proteins were immunoblotted to assess the following parameters. (A) Relative phosphorylation level of SRC. (B) Relative phosphorylation level of AKT. (C) Relative phosphorylation level of LYN. (D) Relative phosphorylation level of BTK. (E) Relative phosphorylation level of all tyrosine-phosphorylated proteins.\n(§2) Whole cell lysate proteins were extracted using RIPA buffer (Sigma-Aldrich) and sonication (VibraCell™). Plasma membrane proteins were recovered by using the Plasma Membrane Protein Extraction Kit (Abcam) according to the manufacturer’s instructions. A list of the antibodies used for immunoblotting is available in Supplementary Table 2. Bands were quantitatively assessed by densitometry using Fiji software. To evaluate the level of interaction of NTSR2 and TRKB we normalized the density of the TRKB bands by the density of the NTSR2 bands to obtain the relative amount of TRKB co-precipitated through NTSR2."}, "[3]": {"system": "Bruton Tyrosine Kinase (BTK)", "assay": "Immunoblot, relative phosphorylation level of BTK in CLL-B cells", "type": "cell-based, human", "details": "CLL-B cells from 10 patients, overnight, 10 µM", "experimental": "as §1, §2"}, "[4]": {"molecular_target": "NTSR2/TRKB interaction (Homo sapiens, UniProt Q16620)", "sequence (Q16620 32-822)": "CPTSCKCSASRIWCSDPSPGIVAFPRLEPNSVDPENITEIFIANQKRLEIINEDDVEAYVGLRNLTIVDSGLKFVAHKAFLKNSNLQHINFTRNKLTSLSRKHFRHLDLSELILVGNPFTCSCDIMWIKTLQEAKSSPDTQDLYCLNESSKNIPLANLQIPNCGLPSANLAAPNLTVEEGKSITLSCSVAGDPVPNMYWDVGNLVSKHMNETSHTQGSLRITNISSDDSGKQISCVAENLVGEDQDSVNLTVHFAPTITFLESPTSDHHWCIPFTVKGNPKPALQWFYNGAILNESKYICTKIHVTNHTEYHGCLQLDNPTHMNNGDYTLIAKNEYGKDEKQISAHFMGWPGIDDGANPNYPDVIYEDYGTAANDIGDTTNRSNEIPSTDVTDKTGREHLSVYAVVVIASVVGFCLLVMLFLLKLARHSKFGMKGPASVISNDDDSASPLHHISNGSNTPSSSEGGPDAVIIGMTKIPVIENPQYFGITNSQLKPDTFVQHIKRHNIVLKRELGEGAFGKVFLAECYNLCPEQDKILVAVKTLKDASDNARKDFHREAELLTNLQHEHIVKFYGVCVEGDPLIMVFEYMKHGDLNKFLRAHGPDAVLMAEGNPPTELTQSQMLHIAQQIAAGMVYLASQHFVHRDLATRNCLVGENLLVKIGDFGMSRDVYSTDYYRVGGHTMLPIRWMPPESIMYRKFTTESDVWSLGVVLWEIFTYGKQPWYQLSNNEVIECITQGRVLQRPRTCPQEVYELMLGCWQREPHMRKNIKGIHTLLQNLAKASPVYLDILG", "assay": "Proximity ligation assay (PLA) for NTSR2 and TRKB in CLL-B cells", "type": "cell-based", "parameters": "endogenous in cells; host or cells: primary CLL-B cells from three CLL patients", "details": "CLL-B cells from three CLL patients, 10 µM overnight; compared with TAT alone or untreated; spots counted in 50 cells", "experimental": "Nuclei were stained with DAPI (blue). […] (C) Representative immunoblot of 3 independent experiments. […] Nuclei were stained with DAPI (blue). Magnification × 40.\nIn a second approach, we investigated the inhibition of the NTSR2/TRKB interaction in CLL-B cells from three CLL patients using PLA on NTSR2 and TRKB. The leukemic B cells were either treated with the TAT-Pep peptide, TAT alone, or left untreated, and then the proximity ligation assay was performed (Fig. 4E,F).\nCells were fixed with methanol at − 20 °C for 10 min and then the Duolink kit (Sigma) was used to perform the PLA according to the manufacturer’s instructions. Before observation, cells were mounted on glass slides with DAPI-containing mounting medium and results were observed by confocal microscopy (LSM880, Zeiss) and analyzed using the Fiji software (ImageJ)."}},
  "data": [
    {"sequence": "GRKKRRQRRRPPQNAVSSSFRKLFLEAVSSLCGEHHPMKRLPPKPQSPTLMDTASGFGDPPETRT [TAT-Pep]", "values": [
      {"measurement": "IC50", "setting": "[1]", "value": 10, "unit": "µM"},
      {"measurement": "AKT phosphorylation (in words)", "setting": "[2]", "value": "did not observe any variation"},
      {"measurement": "BTK phosphorylation (in words)", "setting": "[3]", "value": "did not affect BTK phosphorylation"},
      {"measurement": "PLA red fluorescence spots (proximity of NTSR2 and TRKB), in words", "setting": "[4]", "value": "dramatically reduced"}
    ]}
  ]
}
